Assay results: the kinase profiling compilation of Christmann-Franck et al. (2016)

Tests used:
Test in all cases: radiometric filter-binding kinase assay, Kinase HotSpot
Conditions in all cases: compound 0.5 µM; ATP 10 µM
[1] = biological target: HIPK1 (human) (UniProt Q86Z02)
[2] = biological target: MAP4K2 (human) (UniProt Q12851)
[3] = biological target: CDK9 CCNK (human) (UniProt O75909+P50750)
[4] = biological target: DCLK2 (human) (UniProt Q8N568)
[5] = biological target: IRAK1 (human) (UniProt P51617)
Chain of IRAK1 (human) (P51617 whole entry, looked up): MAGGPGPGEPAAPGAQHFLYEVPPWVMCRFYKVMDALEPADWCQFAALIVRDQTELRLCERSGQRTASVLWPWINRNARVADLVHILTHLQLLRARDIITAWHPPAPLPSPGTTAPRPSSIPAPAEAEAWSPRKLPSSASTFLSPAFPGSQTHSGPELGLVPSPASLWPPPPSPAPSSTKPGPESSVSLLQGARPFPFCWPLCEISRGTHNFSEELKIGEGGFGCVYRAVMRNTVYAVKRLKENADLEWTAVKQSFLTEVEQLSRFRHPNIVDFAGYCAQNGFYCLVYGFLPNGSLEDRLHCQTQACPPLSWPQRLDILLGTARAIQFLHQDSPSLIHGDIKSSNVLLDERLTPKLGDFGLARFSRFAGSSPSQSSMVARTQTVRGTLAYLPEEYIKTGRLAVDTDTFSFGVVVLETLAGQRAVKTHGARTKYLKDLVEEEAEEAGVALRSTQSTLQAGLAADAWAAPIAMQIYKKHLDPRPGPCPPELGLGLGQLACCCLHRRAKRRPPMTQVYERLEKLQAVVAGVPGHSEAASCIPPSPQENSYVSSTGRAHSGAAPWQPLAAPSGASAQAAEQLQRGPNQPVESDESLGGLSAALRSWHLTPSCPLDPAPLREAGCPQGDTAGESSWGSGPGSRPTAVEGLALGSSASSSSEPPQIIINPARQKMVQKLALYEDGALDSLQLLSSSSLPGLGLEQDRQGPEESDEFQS

[6] = biological target: WNK2 (human) (UniProt Q9Y3S1)
[7] = biological target: CSNK2A1 (human) (UniProt P68400)
Chain of CSNK2A1 (human) (P68400 whole entry, looked up): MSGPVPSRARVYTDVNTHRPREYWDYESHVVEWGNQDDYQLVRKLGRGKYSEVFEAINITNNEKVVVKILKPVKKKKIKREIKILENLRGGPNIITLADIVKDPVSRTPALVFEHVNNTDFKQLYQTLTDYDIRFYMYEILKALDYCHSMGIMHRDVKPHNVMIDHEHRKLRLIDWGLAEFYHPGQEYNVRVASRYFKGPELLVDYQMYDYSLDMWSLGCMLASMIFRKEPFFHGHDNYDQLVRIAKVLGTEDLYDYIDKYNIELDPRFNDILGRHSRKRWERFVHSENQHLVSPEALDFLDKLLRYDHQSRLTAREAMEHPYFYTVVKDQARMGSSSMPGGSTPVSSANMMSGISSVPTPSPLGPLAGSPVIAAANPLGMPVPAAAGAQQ

[8] = biological target: RET (human) (UniProt P07949)
[9] = biological target: PNCK (human) (UniProt Q6P2M8)
[10] = biological target: ACVRL1 (human) (UniProt P37023)
[11] = biological target: SLK (human) (UniProt Q9H2G2)
[12] = biological target: PDGFRA (human) (UniProt P16234)
[13] = biological target: MST4 (human) (UniProt Q9P289)
[14] = biological target: SYK (human) (UniProt P43405)
[15] = biological target: GRK6 (human) (UniProt P43250)
Chain of GRK6 (human) (P43250 whole entry, looked up): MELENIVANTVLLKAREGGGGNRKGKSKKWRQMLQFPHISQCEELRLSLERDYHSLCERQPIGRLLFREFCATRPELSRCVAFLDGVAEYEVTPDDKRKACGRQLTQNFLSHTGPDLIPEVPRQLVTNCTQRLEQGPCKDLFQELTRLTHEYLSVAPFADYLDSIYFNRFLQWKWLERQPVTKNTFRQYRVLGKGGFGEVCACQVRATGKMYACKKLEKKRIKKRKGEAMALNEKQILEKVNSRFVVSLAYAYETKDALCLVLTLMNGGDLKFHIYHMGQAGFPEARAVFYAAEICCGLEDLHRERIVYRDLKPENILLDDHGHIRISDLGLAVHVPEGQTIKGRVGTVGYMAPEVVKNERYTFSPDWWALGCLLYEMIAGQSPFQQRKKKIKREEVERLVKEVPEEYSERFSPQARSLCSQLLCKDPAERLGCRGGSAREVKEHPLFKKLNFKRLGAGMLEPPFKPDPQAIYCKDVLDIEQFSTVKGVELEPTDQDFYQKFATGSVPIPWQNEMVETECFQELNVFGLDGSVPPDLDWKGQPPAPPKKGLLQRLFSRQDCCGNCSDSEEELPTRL

[16] = biological target: EPHA1 (human) (UniProt P21709)
[17] = biological target: SRPK3 (human) (UniProt Q9UPE1)
[18] = biological target: AURKC (human) (UniProt Q9UQB9)
[19] = biological target: JAK2 JH1 JH2 (human) (UniProt O60674)
[20] = biological target: CDK6 CCND3 (human) (UniProt P30281+Q00534)
Chain of CDK6 CCND3 (human) (P30281 whole entry, looked up): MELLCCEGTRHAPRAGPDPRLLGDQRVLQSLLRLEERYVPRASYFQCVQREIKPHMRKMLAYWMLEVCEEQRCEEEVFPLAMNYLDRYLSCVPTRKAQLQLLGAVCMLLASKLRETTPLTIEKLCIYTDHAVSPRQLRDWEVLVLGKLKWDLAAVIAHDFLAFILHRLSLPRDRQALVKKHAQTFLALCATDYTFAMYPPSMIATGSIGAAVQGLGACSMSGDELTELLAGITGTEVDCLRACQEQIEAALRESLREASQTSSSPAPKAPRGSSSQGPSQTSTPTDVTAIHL
Chain of CDK6 CCND3 (human) (Q00534 whole entry, looked up): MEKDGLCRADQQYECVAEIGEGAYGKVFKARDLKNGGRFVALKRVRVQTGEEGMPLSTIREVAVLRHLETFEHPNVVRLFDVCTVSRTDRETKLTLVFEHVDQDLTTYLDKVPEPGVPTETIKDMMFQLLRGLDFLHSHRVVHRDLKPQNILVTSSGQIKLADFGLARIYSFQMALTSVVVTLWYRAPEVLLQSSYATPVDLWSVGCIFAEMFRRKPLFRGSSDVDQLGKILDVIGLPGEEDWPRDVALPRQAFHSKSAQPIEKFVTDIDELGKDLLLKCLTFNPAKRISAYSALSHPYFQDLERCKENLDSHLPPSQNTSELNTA

[21] = biological target: PDPK1 (human) (UniProt O15530)
[22] = biological target: SRMS (human) (UniProt Q9H3Y6)
[23] = biological target: JAK1 JH1 catalytic (human) (UniProt P23458)
[24] = biological target: CDC42BPA (human) (UniProt Q5VT25)
[25] = biological target: CSK (human) (UniProt P41240)
Chain of CSK (human) (P41240 whole entry, looked up): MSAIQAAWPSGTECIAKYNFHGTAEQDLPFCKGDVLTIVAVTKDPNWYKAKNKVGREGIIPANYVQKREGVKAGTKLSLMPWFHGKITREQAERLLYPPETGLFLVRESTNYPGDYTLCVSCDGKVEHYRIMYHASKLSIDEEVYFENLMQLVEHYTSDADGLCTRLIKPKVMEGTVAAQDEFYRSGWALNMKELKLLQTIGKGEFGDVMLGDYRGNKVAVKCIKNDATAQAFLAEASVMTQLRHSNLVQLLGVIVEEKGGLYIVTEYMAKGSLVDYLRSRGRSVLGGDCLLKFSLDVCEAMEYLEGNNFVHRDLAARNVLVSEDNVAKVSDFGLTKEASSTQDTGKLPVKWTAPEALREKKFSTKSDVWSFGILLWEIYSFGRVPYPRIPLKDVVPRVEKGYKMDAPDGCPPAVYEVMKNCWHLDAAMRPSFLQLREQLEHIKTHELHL

[26] = biological target: PRKX (human) (UniProt P51817)
[27] = biological target: LTK (human) (UniProt P29376)
[28] = biological target: FGR (human) (UniProt P09769)
Chain of FGR (human) (P09769 whole entry, looked up): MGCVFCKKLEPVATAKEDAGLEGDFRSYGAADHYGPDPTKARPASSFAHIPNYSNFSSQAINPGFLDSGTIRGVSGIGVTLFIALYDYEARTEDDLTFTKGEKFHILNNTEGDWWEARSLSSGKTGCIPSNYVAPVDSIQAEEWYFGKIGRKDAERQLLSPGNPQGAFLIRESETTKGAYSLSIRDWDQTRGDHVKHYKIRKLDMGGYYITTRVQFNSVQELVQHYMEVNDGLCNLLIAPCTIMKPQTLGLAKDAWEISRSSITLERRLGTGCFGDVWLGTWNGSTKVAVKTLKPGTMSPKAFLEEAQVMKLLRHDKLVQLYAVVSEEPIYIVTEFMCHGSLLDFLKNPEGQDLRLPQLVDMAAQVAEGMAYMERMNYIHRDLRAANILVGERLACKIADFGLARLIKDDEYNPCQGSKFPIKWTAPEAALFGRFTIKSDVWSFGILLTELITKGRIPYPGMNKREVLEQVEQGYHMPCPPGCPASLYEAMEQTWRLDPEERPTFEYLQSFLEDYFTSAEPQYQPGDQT

[29] = biological target: PTK2B (human) (UniProt Q14289)
[30] = biological target: DYRK2 (human) (UniProt Q92630)
[31] = biological target: PKN1 (human) (UniProt Q16512)
Chain of PKN1 (human) (Q16512 whole entry, looked up): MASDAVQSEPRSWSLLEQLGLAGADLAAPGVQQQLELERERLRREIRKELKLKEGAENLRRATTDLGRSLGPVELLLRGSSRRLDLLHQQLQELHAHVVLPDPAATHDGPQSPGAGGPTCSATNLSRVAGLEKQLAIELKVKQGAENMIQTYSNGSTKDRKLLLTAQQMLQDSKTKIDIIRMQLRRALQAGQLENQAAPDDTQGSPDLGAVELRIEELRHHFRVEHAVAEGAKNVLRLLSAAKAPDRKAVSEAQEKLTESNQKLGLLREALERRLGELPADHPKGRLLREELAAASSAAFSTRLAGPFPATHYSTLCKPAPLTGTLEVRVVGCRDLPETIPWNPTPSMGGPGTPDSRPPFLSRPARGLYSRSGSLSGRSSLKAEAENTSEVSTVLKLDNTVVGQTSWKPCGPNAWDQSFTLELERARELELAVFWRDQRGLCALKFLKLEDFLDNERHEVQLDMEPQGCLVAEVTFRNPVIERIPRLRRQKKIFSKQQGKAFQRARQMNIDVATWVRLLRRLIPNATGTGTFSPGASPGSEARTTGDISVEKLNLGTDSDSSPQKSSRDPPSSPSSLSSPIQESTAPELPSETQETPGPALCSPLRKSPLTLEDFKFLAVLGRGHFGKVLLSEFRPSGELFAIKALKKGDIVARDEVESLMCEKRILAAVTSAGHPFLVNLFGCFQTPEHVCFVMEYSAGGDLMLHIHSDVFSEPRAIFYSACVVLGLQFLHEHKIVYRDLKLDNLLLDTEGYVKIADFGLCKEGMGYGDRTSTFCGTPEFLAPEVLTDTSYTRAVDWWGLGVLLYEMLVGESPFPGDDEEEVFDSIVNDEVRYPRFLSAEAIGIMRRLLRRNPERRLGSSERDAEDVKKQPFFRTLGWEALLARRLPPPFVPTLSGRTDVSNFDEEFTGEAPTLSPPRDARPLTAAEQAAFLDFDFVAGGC

[32] = biological target: PRKCI (human) (UniProt P41743)
Chain of PRKCI (human) (P41743 whole entry, looked up): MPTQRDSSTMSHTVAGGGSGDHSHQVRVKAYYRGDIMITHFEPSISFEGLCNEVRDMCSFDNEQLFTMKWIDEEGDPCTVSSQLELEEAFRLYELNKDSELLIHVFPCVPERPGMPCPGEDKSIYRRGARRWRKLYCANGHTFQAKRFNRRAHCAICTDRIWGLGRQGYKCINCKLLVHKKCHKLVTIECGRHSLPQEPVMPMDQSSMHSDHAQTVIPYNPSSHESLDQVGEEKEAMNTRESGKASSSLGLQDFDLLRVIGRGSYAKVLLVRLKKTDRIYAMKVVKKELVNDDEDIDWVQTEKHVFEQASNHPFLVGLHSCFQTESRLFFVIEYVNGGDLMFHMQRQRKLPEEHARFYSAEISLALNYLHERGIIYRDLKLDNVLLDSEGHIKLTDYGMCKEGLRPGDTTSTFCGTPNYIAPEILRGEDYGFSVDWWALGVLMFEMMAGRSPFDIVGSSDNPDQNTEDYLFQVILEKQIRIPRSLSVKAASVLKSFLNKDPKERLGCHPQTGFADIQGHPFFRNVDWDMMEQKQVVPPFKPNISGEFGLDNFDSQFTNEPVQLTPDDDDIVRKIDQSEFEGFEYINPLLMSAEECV

[33] = biological target: CSNK1G2 (human) (UniProt P78368)
[34] = biological target: STK38 (human) (UniProt Q15208)
[35] = biological target: DYRK1B (human) (UniProt Q9Y463)
[36] = biological target: STK3 (human) (UniProt Q13188)
[37] = biological target: MARK1 (human) (UniProt Q9P0L2)
[38] = biological target: PRKCZ (human) (UniProt Q05513)
[39] = biological target: AKT1 (human) (UniProt P31749)
[40] = biological target: CHUK (human) (UniProt O15111)
[41] = biological target: EGFR (human) (UniProt P00533)
[42] = biological target: ABL1 (human) (UniProt P00519)

CNC(=O)c1cc(Oc2ccc(NC(=O)Nc3ccc(Cl)c(C(F)(F)F)c3)cc2)ccn1
residual activity [1]: 99.7% | residual activity [2]: 108% | residual activity [3]: 101% | residual activity [4]: 102% | residual activity [5]: 101% | residual activity [6]: 101% | residual activity [7]: 108% | residual activity [8]: 1.78% | residual activity [9]: 94.7% | residual activity [10]: 104% | residual activity [11]: 96.8% | residual activity [12]: 7.77% | residual activity [13]: 101% | residual activity [14]: 101% | residual activity [15]: 107% | residual activity [16]: 87.7% | residual activity [17]: 88.4% | residual activity [18]: 106% | residual activity [19]: 98.2% | residual activity [20]: 104% | residual activity [21]: 95.8% | residual activity [22]: 107% | residual activity [23]: 110% | residual activity [24]: 85.2% | residual activity [25]: 90.3% | residual activity [26]: 97.7% | residual activity [27]: 99.9% | residual activity [28]: 88.7% | residual activity [29]: 101% | residual activity [30]: 98.9% | residual activity [31]: 106% | residual activity [32]: 89.9% | residual activity [33]: 88.9% | residual activity [34]: 99.8% | residual activity [35]: 93.2% | residual activity [36]: 96.9% | residual activity [37]: 80.3% | residual activity [38]: 94.5% | residual activity [39]: 96.2% | residual activity [40]: 99.8%

CCN(CC)CCNC(=O)c1c(C)[nH]c(/C=C2\C(=O)Nc3ccc(F)cc32)c1C
residual activity [1]: 71.3% | residual activity [2]: 34.4% | residual activity [3]: 80.2% | residual activity [4]: 85% | residual activity [5]: 31.4% | residual activity [6]: 100% | residual activity [7]: 121% | residual activity [8]: 3.43% | residual activity [9]: 98.5% | residual activity [10]: 112% | residual activity [11]: 63.8% | residual activity [12]: 10.9% | residual activity [13]: 110% | residual activity [15]: 74.7% | residual activity [16]: 95.1% | residual activity [17]: 102% | residual activity [18]: 72.8% | residual activity [19]: 88.8% | residual activity [20]: 59.7% | residual activity [21]: 81.6% | residual activity [22]: 99.6% | residual activity [23]: 71.9% | residual activity [24]: 89.5% | residual activity [25]: 90.2% | residual activity [26]: 105% | residual activity [27]: 34.4% | residual activity [28]: 16.4% | residual activity [29]: 38.3% | residual activity [30]: 82.6% | residual activity [31]: 71.4% | residual activity [32]: 103% | residual activity [34]: 93.8% | residual activity [35]: 60% | residual activity [36]: 24.8% | residual activity [37]: 40.9% | residual activity [38]: 91.7% | residual activity [39]: 105% | residual activity [40]: 92.4%

O=C(Nc1cccc(Nc2nccc(Nc3cccc(C(F)(F)F)c3)n2)c1)C1CC1
residual activity [1]: 98.7% | residual activity [2]: 112% | residual activity [3]: 107% | residual activity [4]: 97.4% | residual activity [41]: 87.6% | residual activity [5]: 96.4% | residual activity [6]: 122% | residual activity [7]: 94.1% | residual activity [8]: 88.6% | residual activity [9]: 106% | residual activity [10]: 84.6% | residual activity [11]: 92.9% | residual activity [12]: 89.3% | residual activity [13]: 84.4% | residual activity [14]: 101% | residual activity [15]: 93.8% | residual activity [16]: 81.8% | residual activity [17]: 101% | residual activity [18]: 80.8% | residual activity [19]: 47.7% | residual activity [20]: 98.5% | residual activity [21]: 104% | residual activity [22]: 95.5% | residual activity [23]: 74% | residual activity [24]: 100% | residual activity [25]: 97.4% | residual activity [26]: 94.6% | residual activity [27]: 104% | residual activity [28]: 80.9% | residual activity [29]: 90.9% | residual activity [30]: 106% | residual activity [31]: 93.3% | residual activity [32]: 91.3% | residual activity [33]: 101% | residual activity [35]: 96.3% | residual activity [36]: 96% | residual activity [37]: 104% | residual activity [38]: 98.8% | residual activity [39]: 109% | residual activity [42]: 94.9% | residual activity [40]: 95.7%
